These results are taken from patent US9580442B2, “Tricyclic heterocyclic compounds as phosphoinositide 3-kinase inhibitors” (Karus Therapeutics Limited, priority 2009, dated 2017).

One experiment relates to A549 (Lung Tumour). In words: In vitro inhibition of tumour cell proliferation, A549. The format is cell-based.
Another experiment concerns the target PI3K p110β (Homo sapiens (Human), UniProt P42338). The experiment can be described thus: PI3K isoform biochemical assay, p110β.
The next experiment deals with PI3K p110γ (Homo sapiens (Human), UniProt P48736). In words: PI3K isoform biochemical assay, p110γ.
Sequence of PI3K p110γ (P48736 whole entry, canonical isoform): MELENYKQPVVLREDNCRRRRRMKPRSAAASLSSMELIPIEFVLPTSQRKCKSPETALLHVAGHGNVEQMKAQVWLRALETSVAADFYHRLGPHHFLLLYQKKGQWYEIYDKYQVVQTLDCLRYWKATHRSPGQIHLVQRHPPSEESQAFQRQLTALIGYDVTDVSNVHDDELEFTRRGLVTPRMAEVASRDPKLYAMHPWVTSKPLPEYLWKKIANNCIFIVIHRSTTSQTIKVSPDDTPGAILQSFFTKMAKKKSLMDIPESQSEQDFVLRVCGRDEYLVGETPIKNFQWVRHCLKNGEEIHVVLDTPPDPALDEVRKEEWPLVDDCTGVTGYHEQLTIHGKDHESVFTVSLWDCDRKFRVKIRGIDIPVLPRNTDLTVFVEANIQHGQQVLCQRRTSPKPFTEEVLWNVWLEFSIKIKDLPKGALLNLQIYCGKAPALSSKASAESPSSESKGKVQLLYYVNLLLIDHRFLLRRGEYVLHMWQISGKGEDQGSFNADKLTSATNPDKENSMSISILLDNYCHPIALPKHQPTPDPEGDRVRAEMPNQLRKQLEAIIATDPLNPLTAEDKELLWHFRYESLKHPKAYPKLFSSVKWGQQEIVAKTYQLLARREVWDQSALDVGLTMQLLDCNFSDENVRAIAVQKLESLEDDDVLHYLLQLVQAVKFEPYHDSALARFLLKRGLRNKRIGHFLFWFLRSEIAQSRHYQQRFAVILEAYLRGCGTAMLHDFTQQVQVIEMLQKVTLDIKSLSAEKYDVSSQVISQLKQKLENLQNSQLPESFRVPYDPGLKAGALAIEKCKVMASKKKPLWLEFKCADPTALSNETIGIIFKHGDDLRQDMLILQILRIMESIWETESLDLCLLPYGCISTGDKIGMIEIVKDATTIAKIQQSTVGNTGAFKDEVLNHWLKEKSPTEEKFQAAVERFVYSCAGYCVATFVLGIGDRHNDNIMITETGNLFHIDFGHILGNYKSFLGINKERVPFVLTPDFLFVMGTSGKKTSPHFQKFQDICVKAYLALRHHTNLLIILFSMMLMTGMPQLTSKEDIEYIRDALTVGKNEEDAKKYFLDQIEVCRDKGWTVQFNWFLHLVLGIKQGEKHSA
The next experiment has as its target PI3K p110δ (Homo sapiens (Human), UniProt O00329). In words: PI3K isoform biochemical assay, p110δ.
A further experiment deals with PI3K p110α (Homo sapiens (Human), UniProt P42336). In words: PI3K isoform biochemical assay, p110α.
Sequence of PI3K p110α (P42336 whole entry, canonical isoform): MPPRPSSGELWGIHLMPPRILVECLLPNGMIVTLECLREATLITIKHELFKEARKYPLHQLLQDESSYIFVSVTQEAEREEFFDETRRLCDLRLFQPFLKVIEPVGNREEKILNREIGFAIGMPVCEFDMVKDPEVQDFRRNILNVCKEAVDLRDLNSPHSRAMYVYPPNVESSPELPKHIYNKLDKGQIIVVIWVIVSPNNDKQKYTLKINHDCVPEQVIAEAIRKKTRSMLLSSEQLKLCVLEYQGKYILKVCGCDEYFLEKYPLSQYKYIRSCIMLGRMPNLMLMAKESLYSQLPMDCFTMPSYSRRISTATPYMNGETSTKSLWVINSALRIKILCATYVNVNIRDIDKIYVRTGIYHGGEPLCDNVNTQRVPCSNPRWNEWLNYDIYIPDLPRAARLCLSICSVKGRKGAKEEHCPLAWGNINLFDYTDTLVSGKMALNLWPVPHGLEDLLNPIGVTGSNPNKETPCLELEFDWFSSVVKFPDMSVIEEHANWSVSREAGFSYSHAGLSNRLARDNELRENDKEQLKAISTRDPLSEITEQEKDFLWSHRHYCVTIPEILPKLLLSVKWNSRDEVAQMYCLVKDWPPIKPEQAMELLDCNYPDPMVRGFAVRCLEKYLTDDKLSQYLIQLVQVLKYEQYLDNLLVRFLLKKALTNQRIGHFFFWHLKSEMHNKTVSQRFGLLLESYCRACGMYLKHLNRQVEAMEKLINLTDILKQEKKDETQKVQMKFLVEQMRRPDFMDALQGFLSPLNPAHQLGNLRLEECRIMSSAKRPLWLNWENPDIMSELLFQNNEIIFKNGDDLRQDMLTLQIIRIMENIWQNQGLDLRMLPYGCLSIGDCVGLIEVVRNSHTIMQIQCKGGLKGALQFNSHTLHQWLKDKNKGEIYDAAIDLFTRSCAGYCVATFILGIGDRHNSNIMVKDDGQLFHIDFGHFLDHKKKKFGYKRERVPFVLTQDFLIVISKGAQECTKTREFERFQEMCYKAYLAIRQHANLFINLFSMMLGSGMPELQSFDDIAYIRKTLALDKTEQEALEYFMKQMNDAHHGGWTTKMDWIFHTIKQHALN
Sequence of PI3K p110α (P27986 whole entry partner, canonical isoform): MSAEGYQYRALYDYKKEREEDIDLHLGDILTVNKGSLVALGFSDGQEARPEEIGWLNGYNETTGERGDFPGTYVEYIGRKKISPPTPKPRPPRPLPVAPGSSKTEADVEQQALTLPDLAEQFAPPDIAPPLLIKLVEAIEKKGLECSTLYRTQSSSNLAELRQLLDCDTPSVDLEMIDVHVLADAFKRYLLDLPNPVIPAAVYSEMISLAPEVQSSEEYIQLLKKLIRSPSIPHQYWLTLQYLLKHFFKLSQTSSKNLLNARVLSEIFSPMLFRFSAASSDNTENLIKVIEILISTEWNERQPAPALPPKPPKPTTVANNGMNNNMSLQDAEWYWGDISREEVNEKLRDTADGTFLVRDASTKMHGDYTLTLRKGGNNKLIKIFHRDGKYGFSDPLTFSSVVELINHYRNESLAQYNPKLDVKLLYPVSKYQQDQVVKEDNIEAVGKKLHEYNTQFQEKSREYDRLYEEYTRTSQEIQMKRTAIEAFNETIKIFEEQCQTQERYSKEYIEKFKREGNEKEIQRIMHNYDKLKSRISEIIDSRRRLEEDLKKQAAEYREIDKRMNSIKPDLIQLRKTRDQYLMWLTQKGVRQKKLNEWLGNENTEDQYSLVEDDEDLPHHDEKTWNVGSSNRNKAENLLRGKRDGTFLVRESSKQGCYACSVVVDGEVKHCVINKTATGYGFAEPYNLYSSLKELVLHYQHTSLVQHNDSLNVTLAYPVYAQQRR
For a further experiment, the system named is PC3 (Prostate Tumour). The experiment can be described thus: In vitro inhibition of tumour cell proliferation, PC3. The class given is cell-based.
The subject of experiment [1] is Rheumatoid Arthritis Synovial Fibroblast (RASF). In words: In vitro inhibition of rheumatoid arthritis synovial fibroblast (RASF) proliferation. The class given is cell-based.
For the next experiment, the system named is MCF7 (Breast Tumour). The experiment can be described thus: In vitro inhibition of tumour cell proliferation, MCF7. The format is cell-based.
The test system of another experiment is TNFα. In words: Inhibition of TNFα production from LPS-stimulated hPBMCs. The class given is cell-based, human. The conditions noted are these: hPBMCs stimulated with LPS; for inhibition at 1 µM: Homo sapiens, read-out: % Inhibition of Proinflammatory Cytokine Production at 1 uM, TNFα. The protocol: (§1) 2) Anti-Inflammatory Activity: Inhibition of the Production of Pro-Inflammatory Cytokines from Stimulated Human Peripheral Blood Mononuclear Cells (hPBMCs)
(§2) Compounds were tested at a concentration of 1 uM for cytokine release inhibition in hPBMCs stimulated with LPS (TNFα), PHA (IFNγ) and anti-CD3 (IL-17A, IL-17F, IL-21, IL-23): […]

Another experiment has as its system IL-17A. In words: Inhibition of IL-17A production from anti-CD3-stimulated hPBMCs. The class given is cell-based, human. The conditions noted are these: for inhibition at 1 µM: Homo sapiens, hPBMCs stimulated with anti-CD3, read-out: % Inhibition of Proinflammatory Cytokine Production at 1 uM, IL-17A. As to the method: as §1, §2
The next experiment relates to IL-21. The experiment can be described thus: Inhibition of IL-21 production from anti-CD3-stimulated hPBMCs. The class given is cell-based, human. The conditions noted are these: for inhibition at 1 µM: Homo sapiens, hPBMCs stimulated with anti-CD3, read-out: % Inhibition of Proinflammatory Cytokine Production at 1 uM, IL-21. As to the method: as §1, §2
For the next experiment, the system named is IL-17F. The experiment can be described thus: Inhibition of IL-17F production from anti-CD3-stimulated hPBMCs. The format is cell-based, human. The conditions noted are these: for inhibition at 1 µM: Homo sapiens, hPBMCs stimulated with anti-CD3, read-out: % Inhibition of Proinflammatory Cytokine Production at 1 uM, IL-17F. As to the method: as §1, §2
The next experiment deals with IL-23. The experiment can be described thus: Inhibition of IL-23 production from anti-CD3-stimulated hPBMCs. The class given is cell-based, human. The conditions noted are these: for inhibition at 1 µM: Homo sapiens, hPBMCs stimulated with anti-CD3, read-out: % Inhibition of Proinflammatory Cytokine Production at 1 uM, IL-23. The protocol: as §1, §2
The test system of another experiment is IFNγ. In words: Inhibition of IFNγ production from PHA-stimulated hPBMCs. The conditions noted are these: hPBMCs stimulated with PHA; for inhibition at 1 µM: Homo sapiens, read-out: % Inhibition of Proinflammatory Cytokine Production at 1 uM, IFNγ. The format is cell-based, human. The protocol: as §1, §2
Where [2] appears, read: hPBMCs stimulated with anti-CD3.

Like-named read-outs stand apart in the source and are kept apart here.

Sequence of PI3K p110δ (O00329 whole entry, canonical isoform): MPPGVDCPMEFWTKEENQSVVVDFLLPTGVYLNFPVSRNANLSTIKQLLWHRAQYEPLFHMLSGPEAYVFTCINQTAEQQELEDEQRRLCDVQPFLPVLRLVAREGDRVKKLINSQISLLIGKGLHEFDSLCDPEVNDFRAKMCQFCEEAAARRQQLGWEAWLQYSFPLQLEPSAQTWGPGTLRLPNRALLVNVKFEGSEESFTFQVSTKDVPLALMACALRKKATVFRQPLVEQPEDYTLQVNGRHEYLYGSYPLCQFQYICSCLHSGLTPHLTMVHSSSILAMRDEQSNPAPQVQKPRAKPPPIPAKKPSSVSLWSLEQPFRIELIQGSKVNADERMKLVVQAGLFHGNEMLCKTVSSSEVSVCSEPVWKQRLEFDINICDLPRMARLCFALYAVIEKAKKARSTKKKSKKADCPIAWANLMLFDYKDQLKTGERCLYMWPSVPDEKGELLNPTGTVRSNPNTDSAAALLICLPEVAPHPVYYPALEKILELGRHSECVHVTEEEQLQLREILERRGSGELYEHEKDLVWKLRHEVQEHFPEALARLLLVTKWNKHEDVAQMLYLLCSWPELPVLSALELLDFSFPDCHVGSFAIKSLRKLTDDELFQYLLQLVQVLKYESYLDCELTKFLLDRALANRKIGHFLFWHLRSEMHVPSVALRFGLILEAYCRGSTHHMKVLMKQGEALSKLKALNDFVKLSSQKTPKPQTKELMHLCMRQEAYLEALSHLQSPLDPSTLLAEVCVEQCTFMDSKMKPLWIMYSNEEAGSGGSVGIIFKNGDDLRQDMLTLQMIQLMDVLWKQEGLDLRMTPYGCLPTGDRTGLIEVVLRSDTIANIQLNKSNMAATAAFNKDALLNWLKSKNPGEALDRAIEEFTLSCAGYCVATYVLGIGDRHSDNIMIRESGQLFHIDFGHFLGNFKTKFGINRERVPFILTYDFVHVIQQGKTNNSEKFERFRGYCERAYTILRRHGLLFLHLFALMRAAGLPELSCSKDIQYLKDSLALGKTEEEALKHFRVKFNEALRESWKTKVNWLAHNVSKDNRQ
Sequence of PI3K p110δ (P27986 whole entry partner, canonical isoform): as the sequence (P27986 whole entry partner, canonical isoform) above
Sequence of PI3K p110β (P42338 whole entry, canonical isoform): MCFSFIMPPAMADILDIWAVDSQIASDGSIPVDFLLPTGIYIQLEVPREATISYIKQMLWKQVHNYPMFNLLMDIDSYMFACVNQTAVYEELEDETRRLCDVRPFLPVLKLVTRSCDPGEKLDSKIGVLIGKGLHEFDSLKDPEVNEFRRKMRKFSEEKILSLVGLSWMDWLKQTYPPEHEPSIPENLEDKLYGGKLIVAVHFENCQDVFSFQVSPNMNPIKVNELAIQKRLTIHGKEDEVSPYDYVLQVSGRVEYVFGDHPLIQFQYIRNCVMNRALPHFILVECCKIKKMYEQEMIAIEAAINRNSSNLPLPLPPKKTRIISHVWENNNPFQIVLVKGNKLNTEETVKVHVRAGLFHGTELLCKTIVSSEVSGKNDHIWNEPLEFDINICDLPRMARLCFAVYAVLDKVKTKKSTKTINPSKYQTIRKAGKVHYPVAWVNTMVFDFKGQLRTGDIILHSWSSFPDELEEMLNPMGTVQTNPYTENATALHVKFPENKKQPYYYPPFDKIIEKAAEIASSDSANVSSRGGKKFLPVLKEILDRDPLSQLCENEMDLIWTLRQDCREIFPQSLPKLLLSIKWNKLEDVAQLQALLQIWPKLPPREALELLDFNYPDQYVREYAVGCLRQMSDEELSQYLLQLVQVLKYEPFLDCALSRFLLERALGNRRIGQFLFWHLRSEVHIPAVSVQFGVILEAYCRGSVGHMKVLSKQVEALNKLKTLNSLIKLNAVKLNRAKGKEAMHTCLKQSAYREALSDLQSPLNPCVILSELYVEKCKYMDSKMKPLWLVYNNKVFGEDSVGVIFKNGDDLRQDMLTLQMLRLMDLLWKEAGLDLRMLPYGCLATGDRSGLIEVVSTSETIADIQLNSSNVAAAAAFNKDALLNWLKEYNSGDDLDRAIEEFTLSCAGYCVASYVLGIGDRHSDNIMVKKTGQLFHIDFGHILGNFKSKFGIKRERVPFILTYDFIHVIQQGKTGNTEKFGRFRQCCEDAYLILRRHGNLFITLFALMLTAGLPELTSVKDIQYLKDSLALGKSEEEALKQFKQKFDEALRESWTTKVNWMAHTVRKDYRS
Sequence of PI3K p110β (P27986 whole entry partner, canonical isoform): as the sequence (P27986 whole entry partner, canonical isoform) above

In general, IC50 refers to the concentration that gives 50% inhibition. Read a high IC50 as weaker potency. Take `c1cc(-c2nc(N3CCOCC3)c3sc4ncccc4c3n2)c2cc[nH]c2c1` [A, 2-(1H-Indol-4-yl)-4-morpholin-4-yl-pyrido[3′,2′:4,5]thieno[3,2-d]pyrimidine]: the IC50 in the experiment with A549 (Lung Tumour) (Homo sapiens) is 151 nM; at PI3K p110β, 137 nM; against PI3K p110γ, 873 nM; on PI3K p110δ, 15 nM; on PI3K p110α, 54 nM; in the experiment with PC3 (Prostate Tumour) (Homo sapiens, PC-3), 3010 nM. The results for the concentration for half-maximal inhibition (IC50) (in experiment [1] (Fibroblast); with MCF7 (Breast Tumour) (Homo sapiens)) were 1350 nM and 331 nM, respectively.

The inhibition is the drop in the measured response relative to a control, in per cent. As to `c1cc(-c2nc(N3CCOCC3)c3oc4ncccc4c3n2)c2cc[nH]c2c1` [B, 2-(1H-Indol-4-yl)-4-morpholin-4-yl-pyrido[3′,2′:4,5]furo[3,2-d]pyrimidine], the inhibition at 1 µM was found to be 26% in the experiment on TNFα; 99% with IL-17A; 96% in the experiment on IL-21; 96% with IL-17F; 94% in the experiment on IL-23; 73% with IFNγ. The IC50 is 229 nM with A549 (Lung Tumour) (Homo sapiens); 19 nM against PI3K p110β; 317 nM against PI3K p110γ; 6 nM against PI3K p110δ; 159 nM against PI3K p110α; 1340 nM in the experiment on PC3 (Prostate Tumour) (Homo sapiens, PC-3). Also, the concentration for half-maximal inhibition (IC50) in experiment [1] (Fibroblast) is 817 nM; in the experiment on MCF7 (Breast Tumour) (Homo sapiens) it was 145 nM.

For `c1cc(-c2nc(N3CCOCC3)c3oc4ncc(CN5CCCCC5)cc4c3n2)c2cc[nH]c2c1` [Compound I, 2-(1H-Indol-4-yl)-4-morpholin-4-yl-8-piperidin-1-ylmethyl-pyrido[3′,2′:4,5]furo[3,2d]pyrimidine], the inhibition at 1 µM was determined as 61% in the experiment with TNFα; 95% in the experiment on IL-17A; 96% in the experiment on IL-21; 95% in the experiment on IL-17F; 90% in the experiment with IL-23; 80% in the experiment on IFNγ. Also, 5720 nM corresponded to half-maximal inhibition in [1] (Fibroblast) (IC50).

For the molecule `c1cnc2oc3c(N4CCOCC4)nc(-c4ccnc5[nH]ccc45)nc3c2c1` [D, 4-Morpholin-4-yl-2-(1H-pyrrolo[2,3-b]pyridin-4-yl)-pyrido[3′,2′:4,5]furo[3,2-d]pyrimidine], the IC50 against PI3K p110β worked out at 57 nM; on PI3K p110γ, 103 nM; against PI3K p110δ, 33 nM; against PI3K p110α it was 104 nM.

In the case of `c1cc(-c2cnc3oc4c(N5CCOCC5)nc(-c5cccc6[nH]ccc56)nc4c3c2)c2cc[nH]c2c1` [E, 2,8-Bis-(1H-indol-4-yl)-4-morpholin-4-yl-pyrido[3′,2′:4,5]furo[3,2-d]pyrimidine], the half-maximal inhibitory concentration (IC50) at PI3K p110β was 69 nM; on PI3K p110γ it was 627 nM; against PI3K p110δ it was 7 nM; on PI3K p110α, 88 nM.

As to `CN(C)C(=O)/C=C/c1cnc2oc3c(N4CCOCC4)nc(-c4cccc5[nH]ccc45)nc3c2c1` [G, (E)-3-[2-(1H-Indol-4-yl)-4-morpholin-4-yl-pyrido[3′,2′:4,5]furo[3,2-d]pyrimidin-8-yl]-N,N-dimethylacrylamide], the concentration for half-maximal inhibition (IC50) with A549 (Lung Tumour) (Homo sapiens) came to 186 nM; against PI3K p110β, 83 nM; against PI3K p110γ, 1660 nM; against PI3K p110δ, 5 nM; at PI3K p110α, 223 nM; in the experiment on PC3 (Prostate Tumour) (Homo sapiens, PC-3), 3770 nM. Also, the half-inhibitory concentration (IC50) in the experiment on MCF7 (Breast Tumour) (Homo sapiens) was found to be 127 nM.

On to `CN(C)Cc1cnc2oc3c(N4CCOCC4)nc(-c4cccc5[nH]ccc45)nc3c2c1` [H, [2-(1H-Indol-4-yl)-4-morpholin-4-yl-pyrido[3′,2′:4,5]furo[3,2-d]pyrimidin-8-ylmethyl]-dimethyl-amine], for which the inhibition at 1 µM amounted to 75% with TNFα; 99% with IL-17A; 96% in the experiment on IL-21; 96% with IL-17F; 93% in the experiment with IL-23; 87% in the experiment on IFNγ. Also, the 50% inhibitory concentration (IC50) turned out to be 466 nM in the experiment with A549 (Lung Tumour) (Homo sapiens); 63 nM at PI3K p110β; 213 nM against PI3K p110γ; 6 nM against PI3K p110δ; 398 nM against PI3K p110α; 3030 nM in the experiment on PC3 (Prostate Tumour) (Homo sapiens, PC-3). In addition, the results for the IC50 (in experiment [1] (Fibroblast); in the experiment with MCF7 (Breast Tumour) (Homo sapiens)) were 1900 nM and 165 nM, respectively.

Take `CN1CCN(Cc2cnc3oc4c(N5CCOCC5)nc(-c5cccc6[nH]ccc56)nc4c3c2)CC1` [J, 2-(1H-Indol-4-yl)-8-(4-methyl-piperazin-1-ylmethyl)-4-morpholin-4-yl-pyrido[3′,2′:4,5]furo[3,2-d]pyrimidine]: the half-maximal inhibitory concentration (IC50) on PI3K p110β amounted to 277 nM; on PI3K p110γ, 1040 nM; against PI3K p110δ it was 26 nM; at PI3K p110α, 680 nM.

As for `c1cc(-c2nc(N3CCOCC3)c3oc4ncc(CN5CCOCC5)cc4c3n2)c2cc[nH]c2c1` [K, 2-(1H-Indol-4-yl)-4-morpholin-4-yl-8-morpholin-4-ylmethyl-pyrido[3′,2′:4,5]furo[3,2-d]pyrimidine], the concentration for half-maximal inhibition (IC50) with A549 (Lung Tumour) (Homo sapiens) was 682 nM; against PI3K p110β, 64 nM; on PI3K p110γ, 2610 nM; against PI3K p110δ it was 6 nM; at PI3K p110α, 355 nM; with PC3 (Prostate Tumour) (Homo sapiens, PC-3), 3340 nM. For the same molecule, the concentration for half-maximal inhibition (IC50) in experiment [1] (Fibroblast) is 3020 nM; in the experiment on MCF7 (Breast Tumour) (Homo sapiens), 352 nM.

On to `COCCN(C)Cc1cnc2oc3c(N4CCOCC4)nc(-c4cccc5[nH]ccc45)nc3c2c1` [L, [2-(1H-Indol-4-yl)-4-morpholin-4-yl-pyrido[3′,2′:4,5]furo[3,2-d]pyrimidin-8-ylmethyl]-(2-methoxy-ethyl)-methyl-amine], for which the IC50 with A549 (Lung Tumour) (Homo sapiens) is 1600 nM; at PI3K p110β it was 111 nM; against PI3K p110γ, 1820 nM; at PI3K p110δ, 21 nM; against PI3K p110α, 604 nM; in the experiment on PC3 (Prostate Tumour) (Homo sapiens, PC-3), 3240 nM. In the experiment with MCF7 (Breast Tumour) (Homo sapiens), this molecule showed an IC50 of 119 nM.

Consider `c1cc(-c2nc(N3CCOCC3)c3oc4ncc(N5CCOCC5)cc4c3n2)c2cc[nH]c2c1` [M, 2-(1H-Indol-4-yl)-4,8-di-morpholin-4-yl-pyrido[3′,2′:4,5]furo[3,2-d]pyrimidine], for which the half-maximal inhibitory concentration (IC50) against PI3K p110β was 25 nM; at PI3K p110γ, 219 nM; at PI3K p110δ, 10 nM; at PI3K p110α, 96 nM; in [1] (Fibroblast) it was 1610 nM.

Take `N#CCCN1CCN(Cc2cnc3oc4c(N5CCOCC5)nc(-c5cccc6[nH]ccc56)nc4c3c2)CC1` [R, 3-{4-[2-(1H-Indol-4-yl)-4-morpholin-4-yl-pyrido[3′,2′:4,5]furo[3,2-d]pyrimidin-8-ylmethyl]-piperazin-1-yl}-propionitrile]: the IC50 against PI3K p110β is 131 nM; against PI3K p110γ, 2540 nM; at PI3K p110δ, 22 nM; at PI3K p110α it was 597 nM.

As to “(E)-1-(4-Methyl-piperazin-1-yl)-3-[4-morpholin-4-yl-2-(1H-pyrrolo[2,3-b]pyridin-4-yl)-pyrido[3′,2′:4,5]furo[3,2-d]pyrimidin-8-yl]-propenone”, the “% Inhibition of Proinflammatory Cytokine Production at 1 uM, TNFα” value with TNFα was determined as 74%. Further, the half-inhibitory concentration (IC50) with A549 (Lung Tumour) was found to be 1150 nM; on PI3K p110β, 109 nM; on PI3K p110γ, 269 nM; against PI3K p110δ it was 6 nM; at PI3K p110α it was 127 nM; in the experiment with PC3 (Prostate Tumour) it was 7290 nM. The results for the IC50 (in experiment [1]; with MCF7 (Breast Tumour)) were 2240 nM and 215 nM, respectively. Besides, the “% Inhibition of Proinflammatory Cytokine Production at 1 uM, IL-17A” value in the experiment on IL-17A (setting [2]) was found to be 77%. Moreover, in the experiment with IL-21 (setting [2]), the “% Inhibition of Proinflammatory Cytokine Production at 1 uM, IL-21” value was 82%. The “% Inhibition of Proinflammatory Cytokine Production at 1 uM, IL-17F” value in the experiment on IL-17F (setting [2]) worked out at 74%. Further, the “% Inhibition of Proinflammatory Cytokine Production at 1 uM, IL-23” value with IL-23 (setting [2]) is 93%. Also, in the experiment with IFNγ, the “% Inhibition of Proinflammatory Cytokine Production at 1 uM, IFNγ” value came out at 67%.
